Patent US9440914B2, “Method for treating glioblastomas and other tumors” (THE FEINSTEIN INSTITUTE FOR MEDICAL RESEARCH, priority 2013, dated 2016)

Tested on: GL261 cells
Assay: serum-stimulated GL261 invasion (transwell, BME)
Assay type: cell-based, murine
Conditions: 10 μM; 10% FBS in bottom well, 48 h
Description: FIG. 1A-1C. Semapimod inhibits microglia-stimulated glioblastoma invasion in vitro. (A) Semapimod inhibits microglia-stimulated glioblastoma cell invasion. GL261 cells were embedded in basement membrane extract (BME) with or without microglia in the presence of the indicated concentrations of semapimod, layered in the transwell and incubated for 48 h. The number of invading GL261 cells was determined. Data shown represent the average+/−SEM of 3 independent experiments, performed in duplicate. […] GL261 cells embedded in BME in the presence of the indicated concentration of semapimod, were layered in the transwell and incubated for 48 h. Serum (10% FBS) was added to the bottom well. The number of invading GL261 cells was determined. Data shown represent the average+/−SEM of 3 independent experiments. (C) Semapimod inhibits glioblastoma cell-stimulated microglia invasion. Glioblastoma cells were plated in the bottom well and microglia were embedded in BME in the presence or absence of 200 nM semapimod, layered in the transwell and incubated for 48 h. […]
Invasion Assays: Glioblastoma and microglial cells were labelled with cell tracker green CMFDA and with cell tracker red CMTPX, respectively, and then embedded in 50 μL of 10 mg/mL basement membrane extract (BME) (Trevigen). […] All invaded cells were counted.

Structure (SMILES): C/C(=N\NC(=N)N)c1cc(NC(=O)CCCCCCCCC(=O)Nc2cc(/C(C)=N/NC(=N)N)cc(/C(C)=N/NC(=N)N)c2)cc(/C(C)=N/NC(=N)N)c1 [semapimod]
- effect on serum-stimulated GL261 invasion: does not affect
